In PubChem BioAssay AID1963872 (Molecular Pharmacology Branch, DTP, NCI, 2024):

System: KRAS patient-derived spheroids with HUVEC/MSC, viability
Experiment: Anticancer human tumor 519858-162-T-J1-PDC patient-derived colon adenocarcinoma cell line growth inhibition [KRAS2]
Settings: for IC50: curve of first compound; for viability, T/C: stronger effect = lower value
Outline: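 Combination screen of spheroid viability in tumor-cell co-cultures with endothelial (HUVEC) and mesenchymal stem cell stroma. Each agent was tested in half-log dilutions, topping at clinical Cmax or at 10 microM without a known Cmax.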

[1] = second compound 0.1 µM, first compound 0.0316 µM
[2] = second compound 0.1 µM, first compound 0.1 µM
[3] = second compound 0.1 µM, first compound 0.316 µM
[4] = second compound 0.1 µM, first compound 1 µM
[5] = second compound 0.1 µM, first compound 3.16 µM
[6] = second compound 0.1 µM, first compound 10 µM
[7] = second compound 0.316 µM, first compound 0.0316 µM
[8] = second compound 0.316 µM, first compound 0.1 µM
[9] = second compound 0.316 µM, first compound 0.316 µM
[10] = second compound 0.316 µM, first compound 1 µM
[11] = second compound 0.316 µM, first compound 3.16 µM
[12] = second compound 0.316 µM, first compound 10 µM
[13] = second compound 1 µM, first compound 0.0316 µM
[14] = second compound 1 µM, first compound 0.1 µM
[15] = second compound 1 µM, first compound 0.316 µM
[16] = second compound 1 µM, first compound 1 µM
[17] = second compound 1 µM, first compound 3.16 µM
[18] = second compound 1 µM, first compound 10 µM
[19] = second compound 3.16 µM, first compound 0.0316 µM
[20] = second compound 3.16 µM, first compound 0.1 µM
[21] = second compound 3.16 µM, first compound 0.316 µM
[22] = second compound 3.16 µM, first compound 1 µM
[23] = second compound 3.16 µM, first compound 3.16 µM
[24] = second compound 3.16 µM, first compound 10 µM
[25] = second compound 10 µM, first compound 0.0316 µM
[26] = second compound 10 µM, first compound 0.1 µM
[27] = second compound 10 µM, first compound 0.316 µM
[28] = second compound 10 µM, first compound 1 µM
[29] = second compound 10 µM, first compound 3.16 µM
[30] = second compound 10 µM, first compound 10 µM
[31] = second compound 0.1 µM, first compound 0.00316 µM
[32] = second compound 0.1 µM, first compound 0.01 µM
[33] = second compound 0.316 µM, first compound 0.00316 µM
[34] = second compound 0.316 µM, first compound 0.01 µM
[35] = second compound 1 µM, first compound 0.00316 µM
[36] = second compound 1 µM, first compound 0.01 µM
[37] = second compound 3.16 µM, first compound 0.00316 µM
[38] = second compound 3.16 µM, first compound 0.01 µM
[39] = second compound 10 µM, first compound 0.00316 µM
[40] = second compound 10 µM, first compound 0.01 µM
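Further: compound exposure lasted seven days before readout.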
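Wherever viability, T/C is given: 100% = DMSO vehicle control viability.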

Compound | IC50 (second compound 0.1 µM) [nM] | IC50 (second compound 0.316 µM) [nM] | IC50 (second compound 1 µM) [nM] | IC50 (second compound 3.16 µM) [nM] | IC50 (second compound 10 µM) [nM] | viability, T/C [1] [%] | viability, T/C [2] [%] | viability, T/C [3] [%] | viability, T/C [4] [%] | viability, T/C [7] [%] | viability, T/C [8] [%] | viability, T/C [9] [%] | viability, T/C [10] [%] | viability, T/C [13] [%] | viability, T/C [14] [%] | viability, T/C [15] [%] | viability, T/C [19] [%] | viability, T/C [20] [%] | viability, T/C [25] [%] | viability, T/C [26] [%] | also measured
CC(C)NCC(C(=O)N1CCN(c2ncnc3c2C(C)CC3O)CC1)c1ccc(Cl)cc1 (stereo not given) + CNCc1ccccc1-c1csc(C(C)Nc2nc(C)nc3cc(OC)c(OC)cc23)c1 | > 10000 | > 10000 | > 10000 | 3880 | < 31.6 | 88.2 | 81.7 | 94.9 | 93.7 | 88.5 | 91.6 | 76.3 | 88.1 | 81.7 | 76.2 | 71.1 | 42.8 | 59.8 | 0.36 | 0.39 | viability, T/C [5]: 89.2%; viability, T/C [6]: 88%; viability, T/C [11]: 92.5%; viability, T/C [12]: 93.1%; viability, T/C [16]: 73%; viability, T/C [17]: 85.2%; viability, T/C [18]: 79.9%; viability, T/C [21]: 60%; viability, T/C [22]: 58.3%; viability, T/C [23]: 47.7%; viability, T/C [24]: 43.8%; viability, T/C [27]: 0.34%; viability, T/C [28]: 0.3%; viability, T/C [29]: 0.82%; viability, T/C [30]: 0.78%
CC1(C)CCC(CN2CCN(c3ccc(C(=O)NS(=O)(=O)c4ccc(NCC5CCOCC5)c([N+](=O)[O-])c4)c(Oc4cnc5[nH]ccc5c4)c3)CC2)=C(c2ccc(Cl)cc2)C1 + CNCc1ccccc1-c1csc(C(C)Nc2nc(C)nc3cc(OC)c(OC)cc23)c1 | > 10000 | > 10000 | 2870 | 31.6 | < 31.6 | 69.5 | 86.8 | 92.7 | 68 | 67.5 | 78.4 | 78.4 | 80.8 | 74 | 78.9 | 84.5 | 38.8 | 45.8 | 0.32 | 0.34 | viability, T/C [5]: 69.9%; viability, T/C [6]: 60.4%; viability, T/C [11]: 68.3%; viability, T/C [12]: 60.1%; viability, T/C [16]: 101%; viability, T/C [17]: 46.8%; viability, T/C [18]: 27.6%; viability, T/C [21]: 48.2%; viability, T/C [22]: 67%; viability, T/C [23]: 41.7%; viability, T/C [24]: 15.5%; viability, T/C [27]: 0.37%; viability, T/C [28]: 0.27%; viability, T/C [29]: 0.28%; viability, T/C [30]: 0.35%
CCN1CCN(Cc2ccc(Nc3ncc(F)c(-c4cc(F)c5nc(C)n(C(C)C)c5c4)n3)nc2)CC1 + CNCc1ccccc1-c1csc(C(C)Nc2nc(C)nc3cc(OC)c(OC)cc23)c1 | 640 | 178 | 207 | 22.4 | < 3.16 | 88.8 | 82 | 61.4 | 42.8 | 51.9 | 60.9 | 48.1 | 42.9 | 59.6 | 59.2 | 49.3 | 47.3 | 16.2 | 0.75 | 0.26 | viability, T/C [31]: 86%; viability, T/C [32]: 67.9%; viability, T/C [33]: 98.1%; viability, T/C [34]: 76.4%; viability, T/C [35]: 79%; viability, T/C [36]: 61.4%; viability, T/C [16]: 21.2%; viability, T/C [37]: 56.3%; viability, T/C [38]: 56.5%; viability, T/C [21]: 31.1%; viability, T/C [22]: 29.7%; viability, T/C [39]: 0.31%; viability, T/C [40]: 0.24%; viability, T/C [27]: 0.21%; viability, T/C [28]: 2.71%
Cn1ncnc1[C@H]1c2n[nH]c(=O)c3cc(F)cc(c23)N[C@@H]1c1ccc(F)cc1 + CNCc1ccccc1-c1csc(C(C)Nc2nc(C)nc3cc(OC)c(OC)cc23)c1 | > 100 | > 100 | > 100 | 71.1 | < 0.316 | 95.4 | 98.6 | – | – | 103 | 89.7 | – | – | 78.3 | 102 | – | 54.2 | 48.3 | 0.36 | 0.51 | viability, T/C (second compound 0.1 µM, first compound 0.000316 µM): 82.2%; viability, T/C (second compound 0.1 µM, first compound 0.001 µM): 95.5%; viability, T/C [31]: 96.5%; viability, T/C [32]: 71.5%; viability, T/C (second compound 0.316 µM, first compound 0.000316 µM): 86.3%; viability, T/C (second compound 0.316 µM, first compound 0.001 µM): 94.7%; viability, T/C [33]: 101%; viability, T/C [34]: 112%; viability, T/C (second compound 1 µM, first compound 0.000316 µM): 72%; viability, T/C (second compound 1 µM, first compound 0.001 µM): 98.8%; viability, T/C [35]: 97.7%; viability, T/C [36]: 63.9%; viability, T/C (second compound 3.16 µM, first compound 0.000316 µM): 49.7%; viability, T/C (second compound 3.16 µM, first compound 0.001 µM): 58.7%; viability, T/C [37]: 73.8%; viability, T/C [38]: 56.7%; viability, T/C (second compound 10 µM, first compound 0.000316 µM): 0.66%; viability, T/C (second compound 10 µM, first compound 0.001 µM): 0.41%; viability, T/C [39]: 0.4%; viability, T/C [40]: 1.18%
